Reference: patent US5475136A, “Inhibitors of HIV protease useful for the treatment of AIDS” (Eli Lilly and Company, priority 1992, dated 1995)

Biological target: T1, HIV-1 protease (Human immunodeficiency virus type 1 group M subtype B, UniProt P04585)
T1 construct: host or cells: E. coli K12 L507/pHP10D
Assay: biochemical
Conditions: read-out: Fluorescence Assay IC50 (converted)
Procedure: Lyophils of E. coli K12 L507/pHP10D were obtained from the Northern Regional Research Laboratory, Peoria, Ill. 61604, under the accession number NRRL B-18560 (deposited Nov. 14, 1989).
A culture of E. coli K12 L507/pHP10D was grown to mid-log phase at 32° C. in LB media containing 12.5 μg/mL tetracycline. The cultivation temperature was quickly elevated to 40° C. to induce gene expression, and the cells were allowed to grow for 2.5 hours at this temperature before the culture was quickly chilled on ice. The cells were centrifuged and the cell pellet was resuspended in 20 mL 50 mmol MES buffer (pH 6.0) containing 1 mmol EDTA, 1 mmol DTT, 1 mmol PMSF and 10% glycerol ("Buffer A"). Cells were lysed by sonication using a Fischer Model 300 Dismembrator and a microtip probe. […] Res. Commun., 167, 554-560 (1990); the production of the pl peptide (SQNY) was measured.
The active fractions were combined, made 1.2M in ammonium sulfate, and applied to a 2.0×18 cm hexyl agarose column that had been equilibrated in Buffer A containing 1.2M ammonium sulfate. The sample was loaded at a flow rate of 1 mL/min at 4° C., washed with the equilibration buffer for 240 min (1 mL/min) and then eluted using a reverse linear gradient of 1.2-0M ammonium sulfate in Buffer A for 120 min at the same flow rate. The column was then washed isocratically in Buffer A for 120 min. […]

Row | IC50 [nM] | Compound
1 | 1.24 | CC(=O)N[C@@H](CC(N)=O)C(=O)N[C@@H](CSc1ccc2ccccc2c1)[C@H](O)Cc1ccccc1C(=O)NC(C)(C)C (relative stereo) [Example 1, [2'R-(2'R*,3'R*, 6'S*)]-N(t-butyl)-2-[2'-hydroxy-3'-naphth-2-ylthiomethyl-4',7'-diaza-5',8'-dioxo-6'-(2"-amino-2"-oxoethyl)]nonyl benzamide]
2 | 21.2 | CC(=O)N[C@@H](CC(N)=O)C(=O)N[C@@H](CSc1ccccc1)[C@H](O)Cc1ccccc1C(=O)NC(C)(C)C (relative stereo) [Example 2, [2'R-(2'R*,3'R*,6'S*)]-N(t-Butyl)-2-[2'-hydroxy-3'-phenylthiomethyl-4',7'-diaza-5',8'-dioxo-6'-(2"-amino-2"-oxoethyl)]nonyl benzamide]
